From patent publication US7074789B2, “Kinase inhibitors” (Amgen Inc., priority 1999, dated 2006)

Legend:
Format in all cases: biochemical
AKT = target: T1, AKT (Homo sapiens, UniProt Q9Y243); experiment: Kinase inhibition assay (33P transfer), AKT; settings: Table 2, class symbols A-E; read-out: AKT3-1
T1 construct: Kinases are expressed as either kinase domains or full length constructs; made in house
Method in brief: (§1)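 Radiometric readout: 33P incorporated into surface-bound poly(Glu,Tyr) 4:1 or poly(Arg,Ser) 3:1 is counted by liquid scintillation after a 0.5% phosphoric acid wash. Enzymes were GST or polyHis fusions (kinase domain or full length) from E. coli or High Five insect cells.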

EGFR = target: T2, EGFR (Homo sapiens, UniProt P00533); experiment: Kinase inhibition assay (33P transfer), EGFR; settings: Table 2, class symbols A-E; read-out: EGFR-1
T2 construct: Kinases are expressed as either kinase domains or full length constructs; made in house
Method in brief: (§2)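 Read-out: scintillation counts of 33P moved from ATP onto synthetic peptide polymer coated on the well surface, after washing with 0.5% phosphoric acid. Enzymes were tagged (GST or polyHistidine) and came from bacterial or insect-cell expression. IC50 marks 50% loss of incorporated label.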

IGFR-1 = target: T3, IGFR-1 (Homo sapiens, UniProt P08069); experiment: Kinase inhibition assay (33P transfer), IGFR-1; settings: Table 2, class symbols A-E
T3 construct: Kinases are expressed as either kinase domains or full length constructs; made in house

PDGFRB = target: T4, PDGFRB (Homo sapiens, UniProt P09619); experiment: Kinase inhibition assay (33P transfer), PDGFRB; settings: read-out: PDGFRB-1
T4 construct: Kinases are expressed as either kinase domains or full length constructs; made in house
T4 sequence (P09619 33-1106, species assumed): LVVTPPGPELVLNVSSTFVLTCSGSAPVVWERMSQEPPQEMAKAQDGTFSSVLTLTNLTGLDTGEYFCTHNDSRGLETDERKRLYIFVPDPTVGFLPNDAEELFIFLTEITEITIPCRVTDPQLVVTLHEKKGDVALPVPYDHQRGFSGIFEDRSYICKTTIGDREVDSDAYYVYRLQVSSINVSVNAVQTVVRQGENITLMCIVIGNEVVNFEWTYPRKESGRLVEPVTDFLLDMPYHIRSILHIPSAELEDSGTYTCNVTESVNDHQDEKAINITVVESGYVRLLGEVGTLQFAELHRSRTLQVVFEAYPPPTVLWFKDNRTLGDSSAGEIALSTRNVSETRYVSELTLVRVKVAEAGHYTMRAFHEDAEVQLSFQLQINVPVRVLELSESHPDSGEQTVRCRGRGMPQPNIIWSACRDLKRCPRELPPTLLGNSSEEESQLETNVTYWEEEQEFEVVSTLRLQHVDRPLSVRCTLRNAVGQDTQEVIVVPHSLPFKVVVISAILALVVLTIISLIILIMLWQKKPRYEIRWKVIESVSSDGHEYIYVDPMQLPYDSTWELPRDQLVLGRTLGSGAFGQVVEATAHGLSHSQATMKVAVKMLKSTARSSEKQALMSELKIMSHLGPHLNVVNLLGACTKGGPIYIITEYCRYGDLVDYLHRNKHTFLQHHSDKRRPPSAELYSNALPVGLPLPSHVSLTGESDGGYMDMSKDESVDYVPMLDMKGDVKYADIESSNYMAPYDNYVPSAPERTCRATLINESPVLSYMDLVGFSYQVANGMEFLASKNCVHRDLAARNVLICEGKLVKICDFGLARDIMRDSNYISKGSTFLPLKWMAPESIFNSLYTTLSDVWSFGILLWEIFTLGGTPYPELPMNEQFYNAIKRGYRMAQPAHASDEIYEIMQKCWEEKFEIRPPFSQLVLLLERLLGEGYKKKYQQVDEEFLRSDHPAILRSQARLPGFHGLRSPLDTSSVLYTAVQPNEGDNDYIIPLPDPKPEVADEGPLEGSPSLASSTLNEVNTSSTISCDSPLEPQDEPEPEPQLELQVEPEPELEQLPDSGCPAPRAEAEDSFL

ErbB2 = target: T5, ErbB2 (Homo sapiens, UniProt P04626); experiment: Kinase inhibition assay (33P transfer), ErbB2; settings: read-out: ErbB2-2
T5 construct: Kinases are expressed as either kinase domains or full length constructs; made in house
T5 sequence (P04626 23-1255, species assumed): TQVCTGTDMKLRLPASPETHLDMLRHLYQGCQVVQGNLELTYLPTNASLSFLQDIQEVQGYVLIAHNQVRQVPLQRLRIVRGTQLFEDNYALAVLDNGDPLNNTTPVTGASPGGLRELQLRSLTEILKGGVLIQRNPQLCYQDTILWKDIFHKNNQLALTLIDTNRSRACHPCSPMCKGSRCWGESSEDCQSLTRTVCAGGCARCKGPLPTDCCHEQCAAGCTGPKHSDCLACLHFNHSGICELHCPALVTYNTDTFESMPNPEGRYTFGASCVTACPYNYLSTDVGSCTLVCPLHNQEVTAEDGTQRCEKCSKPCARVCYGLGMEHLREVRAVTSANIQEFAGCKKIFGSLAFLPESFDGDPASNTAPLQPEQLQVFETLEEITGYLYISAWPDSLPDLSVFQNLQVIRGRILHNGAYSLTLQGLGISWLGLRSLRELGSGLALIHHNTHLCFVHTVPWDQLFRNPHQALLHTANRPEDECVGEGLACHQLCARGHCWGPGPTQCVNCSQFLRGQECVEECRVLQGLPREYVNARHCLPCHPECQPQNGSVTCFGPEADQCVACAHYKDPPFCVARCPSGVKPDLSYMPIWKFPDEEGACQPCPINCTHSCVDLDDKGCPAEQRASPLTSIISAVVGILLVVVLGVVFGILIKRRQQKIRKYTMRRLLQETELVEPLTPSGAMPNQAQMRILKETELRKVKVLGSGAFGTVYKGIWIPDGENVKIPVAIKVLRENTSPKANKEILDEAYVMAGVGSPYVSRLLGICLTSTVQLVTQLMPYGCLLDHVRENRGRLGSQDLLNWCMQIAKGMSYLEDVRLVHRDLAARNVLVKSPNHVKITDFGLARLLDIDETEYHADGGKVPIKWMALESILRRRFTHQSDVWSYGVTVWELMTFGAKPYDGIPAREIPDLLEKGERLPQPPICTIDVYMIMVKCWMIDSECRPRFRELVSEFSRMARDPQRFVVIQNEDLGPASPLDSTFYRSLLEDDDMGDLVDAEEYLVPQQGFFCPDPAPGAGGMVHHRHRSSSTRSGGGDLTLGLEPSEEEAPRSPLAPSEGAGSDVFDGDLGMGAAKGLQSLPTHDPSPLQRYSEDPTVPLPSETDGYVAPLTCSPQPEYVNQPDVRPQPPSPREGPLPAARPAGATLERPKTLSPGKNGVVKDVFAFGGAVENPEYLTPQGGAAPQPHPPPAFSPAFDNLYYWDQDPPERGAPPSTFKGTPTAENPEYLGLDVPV
Method in brief: as §2

Zap-70 = target: T6, Zap-70 (Homo sapiens, UniProt P43403); experiment: Kinase inhibition assay (33P transfer), Zap-70; settings: Table 3, class symbols; read-out: Zap-1
T6 construct: Kinases are expressed as either kinase domains or full length constructs; made in house
T6 sequence (P43403 1-619): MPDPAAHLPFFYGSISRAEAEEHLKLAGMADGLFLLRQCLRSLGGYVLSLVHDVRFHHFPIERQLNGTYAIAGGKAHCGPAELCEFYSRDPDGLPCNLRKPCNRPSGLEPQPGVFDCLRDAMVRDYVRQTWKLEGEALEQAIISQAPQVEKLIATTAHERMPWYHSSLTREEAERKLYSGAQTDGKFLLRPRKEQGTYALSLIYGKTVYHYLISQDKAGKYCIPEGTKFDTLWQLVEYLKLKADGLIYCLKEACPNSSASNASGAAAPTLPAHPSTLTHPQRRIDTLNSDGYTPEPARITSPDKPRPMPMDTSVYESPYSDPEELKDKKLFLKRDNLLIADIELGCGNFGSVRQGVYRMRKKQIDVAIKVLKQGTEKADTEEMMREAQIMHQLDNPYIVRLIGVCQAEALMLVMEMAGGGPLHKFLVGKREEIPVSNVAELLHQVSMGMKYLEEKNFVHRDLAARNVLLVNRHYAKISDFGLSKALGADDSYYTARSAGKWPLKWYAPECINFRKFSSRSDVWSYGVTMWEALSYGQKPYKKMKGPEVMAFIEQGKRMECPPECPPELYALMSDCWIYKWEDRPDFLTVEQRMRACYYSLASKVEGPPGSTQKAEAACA
Method in brief: as §1

Lck = target: T7, Lck (Homo sapiens, UniProt P06239); experiment: Kinase inhibition assay (33P transfer), Lck; settings: Table 3, class symbols; read-out: Lck-1
T7 construct: Kinases are expressed as either kinase domains or full length constructs; made in house
Method in brief: as §1

Itk = target: T8, Itk (Homo sapiens, UniProt Q08881); experiment: Kinase inhibition assay (33P transfer), Itk; settings: Table 3, class symbols; read-out: Itk-1
T8 construct: Kinases are expressed as either kinase domains or full length constructs; made in house
T8 sequence (Q08881 1-620): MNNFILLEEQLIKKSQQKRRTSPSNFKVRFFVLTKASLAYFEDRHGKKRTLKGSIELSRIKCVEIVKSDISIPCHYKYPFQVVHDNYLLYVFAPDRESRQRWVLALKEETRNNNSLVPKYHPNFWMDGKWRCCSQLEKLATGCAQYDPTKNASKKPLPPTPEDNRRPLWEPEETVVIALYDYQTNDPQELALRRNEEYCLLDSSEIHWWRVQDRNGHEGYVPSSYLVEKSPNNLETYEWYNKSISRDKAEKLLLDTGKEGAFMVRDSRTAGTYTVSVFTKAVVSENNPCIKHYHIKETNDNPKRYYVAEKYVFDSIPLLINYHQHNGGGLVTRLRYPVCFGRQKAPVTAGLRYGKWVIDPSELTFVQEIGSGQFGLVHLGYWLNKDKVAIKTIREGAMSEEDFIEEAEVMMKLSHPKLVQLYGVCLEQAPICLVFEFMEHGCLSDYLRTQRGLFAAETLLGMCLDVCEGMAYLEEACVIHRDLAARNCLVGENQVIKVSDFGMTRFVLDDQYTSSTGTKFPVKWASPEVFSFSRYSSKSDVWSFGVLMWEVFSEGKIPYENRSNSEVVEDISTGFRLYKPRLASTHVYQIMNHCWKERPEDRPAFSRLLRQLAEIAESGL
Method in brief: as §2

Kdr = target: T9, Kdr (Homo sapiens, UniProt P35968); experiment: Kinase inhibition assay (33P transfer), Kdr; settings: Table 3, class symbols; read-out: KDR-1
T9 construct: Kinases are expressed as either kinase domains or full length constructs; made in house
T9 sequence (P35968 20-1356, species assumed): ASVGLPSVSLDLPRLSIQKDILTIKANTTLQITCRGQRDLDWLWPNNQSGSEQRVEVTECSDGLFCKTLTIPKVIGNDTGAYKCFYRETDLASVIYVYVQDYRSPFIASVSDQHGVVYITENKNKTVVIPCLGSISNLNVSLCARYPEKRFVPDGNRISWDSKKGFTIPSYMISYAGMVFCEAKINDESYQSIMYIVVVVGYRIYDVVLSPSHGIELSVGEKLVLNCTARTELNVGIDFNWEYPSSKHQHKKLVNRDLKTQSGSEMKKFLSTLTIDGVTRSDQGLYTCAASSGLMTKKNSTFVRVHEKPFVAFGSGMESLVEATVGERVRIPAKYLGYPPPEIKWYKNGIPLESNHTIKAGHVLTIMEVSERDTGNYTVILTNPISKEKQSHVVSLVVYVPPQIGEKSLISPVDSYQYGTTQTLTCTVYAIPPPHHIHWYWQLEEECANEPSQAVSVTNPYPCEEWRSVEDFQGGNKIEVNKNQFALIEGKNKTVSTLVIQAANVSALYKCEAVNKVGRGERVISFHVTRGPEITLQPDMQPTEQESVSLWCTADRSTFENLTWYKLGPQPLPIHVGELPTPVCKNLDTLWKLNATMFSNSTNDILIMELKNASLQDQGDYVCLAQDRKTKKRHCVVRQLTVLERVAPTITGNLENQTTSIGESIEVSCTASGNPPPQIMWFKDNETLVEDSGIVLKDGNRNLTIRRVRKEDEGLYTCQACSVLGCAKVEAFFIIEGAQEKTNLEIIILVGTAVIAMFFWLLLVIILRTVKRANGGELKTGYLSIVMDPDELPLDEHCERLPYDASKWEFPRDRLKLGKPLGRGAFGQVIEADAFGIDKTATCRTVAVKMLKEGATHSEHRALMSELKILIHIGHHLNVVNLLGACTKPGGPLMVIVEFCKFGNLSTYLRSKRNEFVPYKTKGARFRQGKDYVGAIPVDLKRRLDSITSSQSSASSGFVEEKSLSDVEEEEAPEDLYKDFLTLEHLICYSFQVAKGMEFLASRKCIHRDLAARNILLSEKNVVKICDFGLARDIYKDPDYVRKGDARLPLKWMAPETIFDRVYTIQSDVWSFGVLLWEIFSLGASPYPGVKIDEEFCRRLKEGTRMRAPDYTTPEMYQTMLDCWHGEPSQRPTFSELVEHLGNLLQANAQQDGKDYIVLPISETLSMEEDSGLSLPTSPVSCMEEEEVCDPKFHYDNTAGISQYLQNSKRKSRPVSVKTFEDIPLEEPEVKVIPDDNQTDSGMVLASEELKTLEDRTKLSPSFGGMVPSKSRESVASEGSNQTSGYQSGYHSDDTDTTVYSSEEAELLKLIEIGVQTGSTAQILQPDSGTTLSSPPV
Method in brief: as §1

c-Met = target: T10, c-Met (Homo sapiens, UniProt P08581); experiment: Kinase inhibition assay (33P transfer), c-Met; settings: Table 2, class symbols A-E; read-out: Met-1
T10 construct: Kinases are expressed as either kinase domains or full length constructs; made in house
T10 sequence (P08581 25-1390): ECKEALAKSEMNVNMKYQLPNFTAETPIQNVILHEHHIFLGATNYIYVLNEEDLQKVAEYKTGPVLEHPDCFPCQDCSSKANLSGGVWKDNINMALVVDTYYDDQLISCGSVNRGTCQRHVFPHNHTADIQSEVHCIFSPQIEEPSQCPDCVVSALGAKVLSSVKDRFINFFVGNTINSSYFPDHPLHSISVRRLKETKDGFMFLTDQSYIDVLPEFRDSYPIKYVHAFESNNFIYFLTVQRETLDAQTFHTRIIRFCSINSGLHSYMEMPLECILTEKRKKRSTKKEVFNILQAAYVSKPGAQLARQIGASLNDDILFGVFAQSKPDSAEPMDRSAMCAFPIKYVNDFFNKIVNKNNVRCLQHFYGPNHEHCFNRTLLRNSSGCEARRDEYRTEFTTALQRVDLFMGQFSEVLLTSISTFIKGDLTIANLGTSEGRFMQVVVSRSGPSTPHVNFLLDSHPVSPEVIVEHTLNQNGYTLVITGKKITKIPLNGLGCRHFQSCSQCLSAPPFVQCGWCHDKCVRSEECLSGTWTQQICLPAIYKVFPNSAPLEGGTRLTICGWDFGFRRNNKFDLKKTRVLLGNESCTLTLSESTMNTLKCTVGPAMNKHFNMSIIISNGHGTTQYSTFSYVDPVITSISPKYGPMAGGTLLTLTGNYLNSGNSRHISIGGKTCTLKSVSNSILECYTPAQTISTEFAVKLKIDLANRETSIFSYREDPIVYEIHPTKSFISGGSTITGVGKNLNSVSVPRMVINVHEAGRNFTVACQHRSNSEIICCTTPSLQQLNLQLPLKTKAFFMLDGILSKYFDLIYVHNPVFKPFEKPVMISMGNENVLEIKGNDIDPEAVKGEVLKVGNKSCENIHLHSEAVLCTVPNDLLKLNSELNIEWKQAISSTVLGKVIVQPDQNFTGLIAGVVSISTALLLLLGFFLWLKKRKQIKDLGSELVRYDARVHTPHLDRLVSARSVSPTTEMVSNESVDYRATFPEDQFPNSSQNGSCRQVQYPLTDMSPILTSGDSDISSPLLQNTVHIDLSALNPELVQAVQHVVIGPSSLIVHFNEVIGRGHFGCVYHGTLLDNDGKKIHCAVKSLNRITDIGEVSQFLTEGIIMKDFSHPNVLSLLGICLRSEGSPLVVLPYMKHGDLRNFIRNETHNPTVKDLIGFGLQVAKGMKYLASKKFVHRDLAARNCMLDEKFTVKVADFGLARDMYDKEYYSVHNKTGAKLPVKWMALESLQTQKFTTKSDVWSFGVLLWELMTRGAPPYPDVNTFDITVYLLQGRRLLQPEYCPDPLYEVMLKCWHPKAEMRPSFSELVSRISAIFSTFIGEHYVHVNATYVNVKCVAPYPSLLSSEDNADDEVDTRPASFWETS
Method in brief: as §2

Structure (SMILES) | IC50 (AKT) | IC50 (EGFR) | IC50 (IGFR-1) | IC50 (PDGFRB) | IC50 (ErbB2) | IC50 (Zap-70) | IC50 (Lck) | IC50 (Itk) | IC50 (Kdr) | IC50 (c-Met)
COc1ccc(Nc2ncnc(Nc3ccc4c(c3)CCC4)n2)cc1OC [Compound 896] | 6.6 to 9.63 µM | 1.1 to 6.6 µM | 1.1 to 6.6 µM | < 1.1 µM | 1.1 to 6.6 µM | > 12.4 µM | > 12.4 µM | 6.6 to 9.63 µM | 6.6 to 9.63 µM | 1.1 to 6.6 µM
COc1ccc(Nc2ncnc(Nc3cccc(C#N)c3)n2)cc1OC [Compound 897] | > 12.9 µM | < 1.15 µM | > 12.9 µM | < 1.15 µM | > 12.9 µM | > 12.9 µM | > 12.9 µM | 6.89 to 10 µM | > 12.9 µM | > 12.9 µM
COc1ccc(Nc2ncnc(Nc3cc(Cl)cc(Cl)c3)n2)cc1OC [Compound 898] | > 11.5 µM | 6.12 to 8.92 µM | 6.12 to 8.92 µM | 8.92 to 11.5 µM | > 11.5 µM | > 11.5 µM | > 11.5 µM | > 11.5 µM | > 11.5 µM | > 11.5 µM
COc1ccc(Nc2ncnc(Nc3ccc(N4CCCCC4)cc3)n2)cc1OC [Compound 899] | 5.9 to 8.61 µM | 0.984 to 5.9 µM | 5.9 to 8.61 µM | < 0.984 µM | 0.984 to 5.9 µM | > 11.1 µM | 0.984 to 5.9 µM | 0.984 to 5.9 µM | 0.984 to 5.9 µM | 0.984 to 5.9 µM
Cc1nccc(-c2cccc(Nc3ncnc(Nc4ccc5c(cnn5Cc5ccccc5)c4)n3)c2)n1 [Compound 901] | 0.824 to 4.94 µM | < 0.824 µM | > 9.27 µM | < 0.824 µM | 0.824 to 4.94 µM | > 9.27 µM | 0.824 to 4.94 µM | 0.824 to 4.94 µM | 0.824 to 4.94 µM | 0.824 to 4.94 µM
CN(c1ccc(Cl)c(Cl)c1)c1ncnc(Nc2ccc3c(cnn3Cc3ccccc3)c2)n1 [Compound 903] | > 9.45 µM | < 0.84 µM | > 9.45 µM | 5.04 to 7.35 µM | 5.04 to 7.35 µM | > 9.45 µM | > 9.45 µM | > 9.45 µM | > 9.45 µM | 5.04 to 7.35 µM
COc1ccc(Nc2ncnc(Nc3ccc4c(cnn4Cc4ccccc4)c3)n2)cc1 [Compound 905] | > 10.6 µM | < 0.945 µM | > 10.6 µM | 0.945 to 5.67 µM | 0.945 to 5.67 µM | > 10.6 µM | > 10.6 µM | 0.945 to 5.67 µM | 0.945 to 5.67 µM | 0.945 to 5.67 µM
Nc1nc2ccccc2n1-c1ncnc(Nc2cccc(Cn3ccnn3)c2)n1 [Compound 960] | > 11.7 µM | 6.24 to 9.1 µM | < 1.04 µM | 9.1 to 11.7 µM | 6.24 to 9.1 µM | > 11.7 µM | 1.04 to 6.24 µM | 1.04 to 6.24 µM | < 1.04 µM | 9.1 to 11.7 µM
c1cc(Cn2ccnn2)cc(Nc2ncnc(-n3c(Nc4ccc5[nH]ccc5c4)nc4ccccc43)n2)c1 [Compound 963] | 7.01 to 9.01 µM | 4.8 to 7.01 µM | 4.8 to 7.01 µM | < 0.801 µM | 0.801 to 4.8 µM | 7.01 to 9.01 µM | 0.801 to 4.8 µM | 4.8 to 7.01 µM | < 0.801 µM | 0.801 to 4.8 µM
Fc1cccc(CNc2nc3ccccc3n2-c2ncnc(Nc3cccc(Cn4ccnn4)c3)n2)c1 [Compound 964] | > 9.14 µM | 0.812 to 4.87 µM | > 9.14 µM | < 0.812 µM | 4.87 to 7.11 µM | > 9.14 µM | 4.87 to 7.11 µM | 7.11 to 9.14 µM | < 0.812 µM | > 9.14 µM
c1ccc(CNc2nc3ccccc3n2-c2ncnc(Nc3cccc(Cn4ccnn4)c3)n2)cc1 [Compound 965] | > 9.48 µM | < 0.843 µM | > 9.48 µM | < 0.843 µM | 0.843 to 5.06 µM | > 9.48 µM | 0.843 to 5.06 µM | 5.06 to 7.38 µM | < 0.843 µM | > 9.48 µM
NC(=O)Cc1cccc(Nc2ncnc(Nc3cccc(Br)c3)n2)c1 [Compound 966] | > 11.3 µM | < 1 µM | < 1 µM | < 1 µM | > 11.3 µM | > 11.3 µM | 6.01 to 8.77 µM | > 11.3 µM | 1 to 6.01 µM | > 11.3 µM

Continued, values first:

IC50 (AKT) | IC50 (EGFR) | IC50 (IGFR-1) | IC50 (PDGFRB) | IC50 (ErbB2) | IC50 (Zap-70) | IC50 (Lck) | IC50 (Itk) | IC50 (Kdr) | IC50 (c-Met) | Structure (SMILES)
> 11.8 µM | 1.05 to 6.31 µM | < 1.05 µM | < 1.05 µM | 6.31 to 9.2 µM | > 11.8 µM | 1.05 to 6.31 µM | 1.05 to 6.31 µM | 1.05 to 6.31 µM | > 11.8 µM | COc1ccc(Nc2ncnc(Nc3ccc4ncsc4c3)n2)cc1OC [Compound 895]
< 0.888 µM | < 0.888 µM | 0.888 to 5.33 µM | 0.888 to 5.33 µM | < 0.888 µM | 5.33 to 7.77 µM | 0.888 to 5.33 µM | 0.888 to 5.33 µM | < 0.888 µM | < 0.888 µM | c1ccc(Cn2ncc3cc(Nc4ncnc(Nc5ccc6ncsc6c5)n4)ccc32)cc1 [Compound 900]
0.931 to 5.59 µM | < 0.931 µM | 5.59 to 8.15 µM | > 10.5 µM | 0.931 to 5.59 µM | > 10.5 µM | > 10.5 µM | > 10.5 µM | > 10.5 µM | 0.931 to 5.59 µM | Fc1ccc(Nc2ncnc(Nc3ccc4c(cnn4Cc4ccccc4)c3)n2)cc1F [Compound 902]
8.26 to 10.6 µM | < 0.945 µM | 5.67 to 8.26 µM | 0.945 to 5.67 µM | 0.945 to 5.67 µM | > 10.6 µM | 0.945 to 5.67 µM | 8.26 to 10.6 µM | 5.67 to 8.26 µM | 0.945 to 5.67 µM | COc1cccc(Nc2ncnc(Nc3ccc4c(cnn4Cc4ccccc4)c3)n2)c1 [Compound 904]
0.838 to 5.03 µM | 0.838 to 5.03 µM | 5.03 to 7.33 µM | > 9.43 µM | 0.838 to 5.03 µM | > 9.43 µM | > 9.43 µM | > 9.43 µM | 0.838 to 5.03 µM | 0.838 to 5.03 µM | FC(F)(F)Oc1ccc(Nc2ncnc(Nc3ccc4c(cnn4Cc4ccccc4)c3)n2)cc1 [Compound 906]
> 9.43 µM | < 0.838 µM | > 9.43 µM | > 9.43 µM | 0.838 to 5.03 µM | > 9.43 µM | > 9.43 µM | > 9.43 µM | > 9.43 µM | 5.03 to 7.33 µM | FC(F)(F)Oc1cccc(Nc2ncnc(Nc3ccc4c(cnn4Cc4ccccc4)c3)n2)c1 [Compound 907]
> 10.6 µM | < 0.945 µM | 0.945 to 5.67 µM | 8.27 to 10.6 µM | < 0.945 µM | > 10.6 µM | 5.67 to 8.27 µM | 5.67 to 8.27 µM | 0.945 to 5.67 µM | > 10.6 µM | Brc1cccc(Nc2ncnc(Nc3cccc(Cn4ccnn4)c3)n2)c1 [Compound 961]
> 9.46 µM | 5.05 to 7.36 µM | 7.36 to 9.46 µM | < 0.841 µM | 7.36 to 9.46 µM | > 9.46 µM | 0.841 to 5.05 µM | > 9.46 µM | < 0.841 µM | > 9.46 µM | c1ccc(CNc2nc3ccccc3n2-c2ncnc(Nc3cccc(Cn4ccnn4)c3)n2)nc1 [Compound 962]
